Results as given in patent US9981959B2, “Thiazolyl and oxazolyl urea, thiourea, guanidine and cyanoguanidine compounds as TrkA kinase inhibitors” (Array BioPharma Inc., priority 2012, dated 2018).

Assays:
Assay in all cases: KinaseProfiler off-target kinase profiling
Type in all cases: biochemical
Conditions in all cases: 10 μM, ATP near Km
JNK1alpha1 = biological target: T1, JNK1alpha1 (Homo sapiens, UniProt P45983)
T1 construct: purchased Millipore, Inc. (KinaseProfiler service)
Method: (§1) A representative compound of the invention (Example 2) was tested for off-target kinase activity at a concentration of 10 μM by Millipore, Inc. in their KinaseProfiler™ service against all the kinases available in their full kinase panel. The compound was run in duplicate at a concentration of ATP near the Km for each individual kinase according to Millipore's specifications. The results are shown in Table B. Data are reported as percent of control (POC) and are the average of the two replicates.

Mer = biological target: T2, Mer (Homo sapiens, UniProt Q12866)
T2 construct: purchased Millipore, Inc. (KinaseProfiler service)
Method: as §1

PRKG1alpha = biological target: T3, PRKG1alpha (Homo sapiens, UniProt Q13976)
T3 construct: purchased Millipore, Inc. (KinaseProfiler service)
Method: as §1

MINK = biological target: T4, MINK (Homo sapiens, UniProt Q8N4C8)
T4 construct: purchased Millipore, Inc. (KinaseProfiler service)
Method: as §1

Yes = biological target: T5, Yes (Homo sapiens, UniProt P07947)
T5 construct: purchased Millipore, Inc. (KinaseProfiler service)
Method: as §1

Flt1 = biological target: T6, Flt1 (Homo sapiens, UniProt P17948)
T6 construct: purchased Millipore, Inc. (KinaseProfiler service)
Method: as §1

EphA8 = biological target: T7, EphA8 (Homo sapiens, UniProt P29322)
T7 construct: purchased Millipore, Inc. (KinaseProfiler service)
Method: as §1

CK2alpha2 = biological target: T8, CK2alpha2 (Homo sapiens, UniProt P19784)
T8 construct: purchased Millipore, Inc. (KinaseProfiler service)
Method: as §1

CLK3 = biological target: T9, CLK3 (Homo sapiens, UniProt P49761)
T9 construct: purchased Millipore, Inc. (KinaseProfiler service)
Method: as §1

NEK7 = biological target: T10, NEK7 (Homo sapiens, UniProt Q8TDX7)
T10 construct: purchased Millipore, Inc. (KinaseProfiler service)
Method: as §1

AKT2 = biological target: T11, AKT2 (Homo sapiens, UniProt P31751)
T11 construct: purchased Millipore (KinaseProfiler service)
Method: as §1

CK2 = biological target: T12, CK2 (Homo sapiens, UniProt P68400)
T12 construct: purchased Millipore, Inc. (KinaseProfiler service)
Method: as §1

PKCalpha = biological target: T13, PKCalpha (Homo sapiens, UniProt P17252)
T13 construct: purchased Millipore, Inc. (KinaseProfiler service)
Method: as §1

Pim-3 = biological target: T14, Pim-3 (Homo sapiens, UniProt Q86V86)
T14 construct: purchased Millipore, Inc. (KinaseProfiler service)
Method: as §1

IGF-1R Activated = biological target: T15, IGF-1R Activated (Homo sapiens, UniProt P08069)
T15 construct: purchased Millipore, Inc. (KinaseProfiler service)
Method: as §1

PKCiota = biological target: T16, PKCiota (Homo sapiens, UniProt P41743)
T16 construct: purchased Millipore, Inc. (KinaseProfiler service)
Method: as §1

PAK6 = biological target: T17, PAK6 (Homo sapiens, UniProt Q9NQU5)
T17 construct: purchased Millipore, Inc. (KinaseProfiler service)
Method: as §1

CAMK1 = biological target: T18, CAMK1 (Homo sapiens, UniProt Q14012)
T18 construct: purchased Millipore (KinaseProfiler service)
Method: as §1

SRC = biological target: T19, SRC (Homo sapiens, UniProt P12931)
T19 construct: purchased Millipore, Inc. (KinaseProfiler service)
Method: as §1

c-RAF = biological target: T20, c-RAF (Homo sapiens, UniProt P04049, Y340D/Y341D)
T20 construct: purchased Millipore, Inc. (KinaseProfiler service)
Method: as §1

Ret = biological target: T21, Ret (Homo sapiens, UniProt P07949)
T21 construct: purchased Millipore, Inc. (KinaseProfiler service)
Method: as §1

MSSK1 = biological target: T22, MSSK1 (Homo sapiens, UniProt Q9UPE1)
T22 construct: purchased Millipore, Inc. (KinaseProfiler service)
Method: as §1

IR Activated = biological target: T23, IR Activated (Homo sapiens, UniProt P06213)
T23 construct: purchased Millipore, Inc. (KinaseProfiler service)
Method: as §1

Fes = biological target: T24, Fes (Homo sapiens, UniProt P07332)
T24 construct: purchased Millipore, Inc. (KinaseProfiler service)
Method: as §1

VRK2 = biological target: T25, VRK2 (Homo sapiens, UniProt Q86Y07)
T25 construct: purchased Millipore, Inc. (KinaseProfiler service)
Method: as §1

CK1_y = system: CK1_y
Method: as §1

PAK5 = biological target: T26, PAK5 (Homo sapiens, UniProt Q9P286)
T26 construct: purchased Millipore, Inc. (KinaseProfiler service)
Method: as §1

WNK2 = biological target: T27, WNK2 (Homo sapiens, UniProt Q9Y3S1)
T27 construct: purchased Millipore, Inc. (KinaseProfiler service)
Method: as §1

EphB1 = biological target: T28, EphB1 (Homo sapiens, UniProt P54762)
T28 construct: purchased Millipore, Inc. (KinaseProfiler service)
Method: as §1

Plk2 = biological target: T29, Plk2 (Homo sapiens, UniProt Q9NYY3)
T29 construct: purchased Millipore, Inc. (KinaseProfiler service)
Method: as §1

MST3 = biological target: T30, MST3 (Homo sapiens, UniProt Q9Y6E0)
T30 construct: purchased Millipore, Inc. (KinaseProfiler service)
Method: as §1

FGFR2 = biological target: T31, FGFR2 (Homo sapiens, UniProt P21802)
T31 construct: purchased Millipore, Inc. (KinaseProfiler service)
Method: as §1

PRKG1beta = biological target: T32, PRKG1beta (Homo sapiens, UniProt Q13976)
T32 construct: purchased Millipore, Inc. (KinaseProfiler service)
Method: as §1

PKCbetaI = biological target: T33, PKCbetaI (Homo sapiens, UniProt P05771)
T33 construct: purchased Millipore, Inc. (KinaseProfiler service)
Method: as §1

AURKA = biological target: T34, AURKA (Homo sapiens, UniProt O14965)
T34 construct: purchased Millipore (KinaseProfiler service)
Method: as §1

CHK2 = biological target: T35, CHK2 (Homo sapiens, UniProt O96017)
T35 construct: purchased Millipore, Inc. (KinaseProfiler service)
Method: as §1

PKD1 = biological target: T36, PKD1 (Homo sapiens, UniProt Q15139)
T36 construct: purchased Millipore, Inc. (KinaseProfiler service)
Method: as §1

MYLK = biological target: T37, MYLK (Homo sapiens, UniProt Q15746)
T37 construct: purchased Millipore, Inc. (KinaseProfiler service)
Method: as §1

BrSK1 = biological target: T38, BrSK1 (Homo sapiens, UniProt Q8TDC3)
T38 construct: purchased Millipore (KinaseProfiler service)
Method: as §1

JNK3 = biological target: T39, JNK3 (Homo sapiens, UniProt P53779)
T39 construct: purchased Millipore, Inc. (KinaseProfiler service)
Method: as §1

PKCbetaII = biological target: T40, PKCbetaII (Homo sapiens, UniProt P05771)
T40 construct: purchased Millipore, Inc. (KinaseProfiler service)
Method: as §1

T40 sequence (P05771 1-673 isoform P05771-2): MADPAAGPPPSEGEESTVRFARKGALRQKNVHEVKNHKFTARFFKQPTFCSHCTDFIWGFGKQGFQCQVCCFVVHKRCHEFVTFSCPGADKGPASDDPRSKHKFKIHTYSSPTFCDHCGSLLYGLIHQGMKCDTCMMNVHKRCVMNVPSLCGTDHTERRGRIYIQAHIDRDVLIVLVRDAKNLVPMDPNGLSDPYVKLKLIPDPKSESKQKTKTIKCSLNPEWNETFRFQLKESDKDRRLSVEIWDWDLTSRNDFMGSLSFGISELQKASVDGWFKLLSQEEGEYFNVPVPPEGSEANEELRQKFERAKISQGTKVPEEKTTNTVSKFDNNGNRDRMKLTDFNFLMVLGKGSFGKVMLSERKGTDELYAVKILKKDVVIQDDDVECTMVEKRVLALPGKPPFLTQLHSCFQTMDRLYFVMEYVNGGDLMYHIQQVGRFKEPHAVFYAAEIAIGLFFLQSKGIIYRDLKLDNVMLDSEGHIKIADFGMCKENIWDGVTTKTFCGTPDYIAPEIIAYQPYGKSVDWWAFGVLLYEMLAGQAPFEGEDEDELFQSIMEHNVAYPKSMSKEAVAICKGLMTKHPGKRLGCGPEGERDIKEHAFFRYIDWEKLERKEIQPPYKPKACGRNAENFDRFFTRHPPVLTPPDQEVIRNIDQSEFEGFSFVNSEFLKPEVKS
T28 sequence (P54762 18-984): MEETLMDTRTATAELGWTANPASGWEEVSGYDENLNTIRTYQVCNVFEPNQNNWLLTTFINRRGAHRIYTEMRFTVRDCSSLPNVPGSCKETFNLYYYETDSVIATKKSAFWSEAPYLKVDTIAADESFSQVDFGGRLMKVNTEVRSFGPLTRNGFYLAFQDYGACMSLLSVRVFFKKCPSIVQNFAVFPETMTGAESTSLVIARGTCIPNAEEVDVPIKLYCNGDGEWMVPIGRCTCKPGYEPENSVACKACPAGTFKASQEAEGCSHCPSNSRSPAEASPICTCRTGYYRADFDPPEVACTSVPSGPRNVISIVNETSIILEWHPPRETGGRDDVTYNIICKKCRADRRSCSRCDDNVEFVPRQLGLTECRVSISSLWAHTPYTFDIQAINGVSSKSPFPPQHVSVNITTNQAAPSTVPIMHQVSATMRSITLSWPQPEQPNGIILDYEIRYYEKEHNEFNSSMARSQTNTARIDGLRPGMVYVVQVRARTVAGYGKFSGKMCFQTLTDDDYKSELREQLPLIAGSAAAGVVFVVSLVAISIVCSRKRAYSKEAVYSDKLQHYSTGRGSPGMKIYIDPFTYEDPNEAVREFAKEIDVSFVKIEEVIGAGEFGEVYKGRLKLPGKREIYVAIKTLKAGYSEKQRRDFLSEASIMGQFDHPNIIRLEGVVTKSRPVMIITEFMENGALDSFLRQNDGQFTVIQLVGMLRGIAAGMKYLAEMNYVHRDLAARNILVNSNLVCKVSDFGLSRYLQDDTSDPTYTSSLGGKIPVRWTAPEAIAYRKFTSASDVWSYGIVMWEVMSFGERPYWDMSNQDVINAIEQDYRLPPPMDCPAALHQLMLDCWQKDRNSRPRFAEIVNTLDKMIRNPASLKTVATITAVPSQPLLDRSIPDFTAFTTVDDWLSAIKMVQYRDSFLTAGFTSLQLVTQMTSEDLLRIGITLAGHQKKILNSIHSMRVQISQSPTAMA
T15 sequence (P08069 959-1367 limits assumed): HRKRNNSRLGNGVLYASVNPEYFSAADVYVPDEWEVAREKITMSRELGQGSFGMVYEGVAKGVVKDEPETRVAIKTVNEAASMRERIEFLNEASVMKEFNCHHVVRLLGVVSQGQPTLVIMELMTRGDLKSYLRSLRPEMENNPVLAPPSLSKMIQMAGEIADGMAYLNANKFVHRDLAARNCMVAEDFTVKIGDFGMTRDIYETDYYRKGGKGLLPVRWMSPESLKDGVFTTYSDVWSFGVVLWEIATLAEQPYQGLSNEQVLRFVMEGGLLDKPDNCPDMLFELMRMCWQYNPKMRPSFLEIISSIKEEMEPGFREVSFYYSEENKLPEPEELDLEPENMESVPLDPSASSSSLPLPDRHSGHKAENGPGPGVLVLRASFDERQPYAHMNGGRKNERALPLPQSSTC
T29 sequence (Q9NYY3 whole entry): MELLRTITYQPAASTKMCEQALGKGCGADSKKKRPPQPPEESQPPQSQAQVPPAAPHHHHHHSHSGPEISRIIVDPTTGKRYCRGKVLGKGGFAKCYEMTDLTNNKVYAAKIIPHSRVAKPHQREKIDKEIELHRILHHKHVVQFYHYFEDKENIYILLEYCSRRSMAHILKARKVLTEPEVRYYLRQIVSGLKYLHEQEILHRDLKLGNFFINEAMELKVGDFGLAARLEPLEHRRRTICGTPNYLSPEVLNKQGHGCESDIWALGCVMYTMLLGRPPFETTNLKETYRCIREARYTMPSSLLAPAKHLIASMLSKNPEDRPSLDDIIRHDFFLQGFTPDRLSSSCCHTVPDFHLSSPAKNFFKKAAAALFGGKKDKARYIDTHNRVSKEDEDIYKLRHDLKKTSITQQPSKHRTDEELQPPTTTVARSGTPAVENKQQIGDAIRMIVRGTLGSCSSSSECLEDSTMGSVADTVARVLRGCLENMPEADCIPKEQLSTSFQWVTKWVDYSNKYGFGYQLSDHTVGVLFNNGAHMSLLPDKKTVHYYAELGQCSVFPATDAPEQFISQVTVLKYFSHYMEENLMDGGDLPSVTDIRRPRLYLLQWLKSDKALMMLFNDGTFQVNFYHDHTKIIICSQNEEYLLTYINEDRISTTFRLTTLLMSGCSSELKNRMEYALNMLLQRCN
T3 sequence (Q13976 whole entry): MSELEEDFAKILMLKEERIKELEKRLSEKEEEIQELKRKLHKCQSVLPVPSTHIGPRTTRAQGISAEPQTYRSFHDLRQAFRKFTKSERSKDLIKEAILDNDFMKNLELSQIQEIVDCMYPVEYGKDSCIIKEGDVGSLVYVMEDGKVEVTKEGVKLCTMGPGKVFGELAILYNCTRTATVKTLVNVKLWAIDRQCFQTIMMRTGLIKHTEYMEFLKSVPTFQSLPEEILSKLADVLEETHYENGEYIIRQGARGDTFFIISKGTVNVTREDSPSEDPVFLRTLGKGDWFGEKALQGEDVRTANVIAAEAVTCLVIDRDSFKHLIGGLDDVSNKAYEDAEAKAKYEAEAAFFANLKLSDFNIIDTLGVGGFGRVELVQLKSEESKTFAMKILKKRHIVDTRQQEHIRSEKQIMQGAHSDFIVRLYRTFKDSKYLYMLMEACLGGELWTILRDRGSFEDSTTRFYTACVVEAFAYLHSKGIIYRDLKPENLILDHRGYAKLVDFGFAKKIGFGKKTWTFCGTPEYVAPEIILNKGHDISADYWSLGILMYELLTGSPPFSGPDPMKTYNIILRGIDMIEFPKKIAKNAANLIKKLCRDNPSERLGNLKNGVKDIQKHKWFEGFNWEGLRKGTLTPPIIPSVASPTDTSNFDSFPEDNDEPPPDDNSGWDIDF
T23 sequence (P06213 1005-1310 limits assumed): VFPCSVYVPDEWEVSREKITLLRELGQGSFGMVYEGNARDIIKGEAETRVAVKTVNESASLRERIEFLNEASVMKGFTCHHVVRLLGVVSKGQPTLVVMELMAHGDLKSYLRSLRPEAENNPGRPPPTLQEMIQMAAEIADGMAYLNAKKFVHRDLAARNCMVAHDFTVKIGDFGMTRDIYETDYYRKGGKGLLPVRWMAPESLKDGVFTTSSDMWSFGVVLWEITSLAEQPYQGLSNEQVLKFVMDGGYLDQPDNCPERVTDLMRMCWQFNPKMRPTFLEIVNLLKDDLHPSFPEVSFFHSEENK
T21 sequence (P07949 29-1114): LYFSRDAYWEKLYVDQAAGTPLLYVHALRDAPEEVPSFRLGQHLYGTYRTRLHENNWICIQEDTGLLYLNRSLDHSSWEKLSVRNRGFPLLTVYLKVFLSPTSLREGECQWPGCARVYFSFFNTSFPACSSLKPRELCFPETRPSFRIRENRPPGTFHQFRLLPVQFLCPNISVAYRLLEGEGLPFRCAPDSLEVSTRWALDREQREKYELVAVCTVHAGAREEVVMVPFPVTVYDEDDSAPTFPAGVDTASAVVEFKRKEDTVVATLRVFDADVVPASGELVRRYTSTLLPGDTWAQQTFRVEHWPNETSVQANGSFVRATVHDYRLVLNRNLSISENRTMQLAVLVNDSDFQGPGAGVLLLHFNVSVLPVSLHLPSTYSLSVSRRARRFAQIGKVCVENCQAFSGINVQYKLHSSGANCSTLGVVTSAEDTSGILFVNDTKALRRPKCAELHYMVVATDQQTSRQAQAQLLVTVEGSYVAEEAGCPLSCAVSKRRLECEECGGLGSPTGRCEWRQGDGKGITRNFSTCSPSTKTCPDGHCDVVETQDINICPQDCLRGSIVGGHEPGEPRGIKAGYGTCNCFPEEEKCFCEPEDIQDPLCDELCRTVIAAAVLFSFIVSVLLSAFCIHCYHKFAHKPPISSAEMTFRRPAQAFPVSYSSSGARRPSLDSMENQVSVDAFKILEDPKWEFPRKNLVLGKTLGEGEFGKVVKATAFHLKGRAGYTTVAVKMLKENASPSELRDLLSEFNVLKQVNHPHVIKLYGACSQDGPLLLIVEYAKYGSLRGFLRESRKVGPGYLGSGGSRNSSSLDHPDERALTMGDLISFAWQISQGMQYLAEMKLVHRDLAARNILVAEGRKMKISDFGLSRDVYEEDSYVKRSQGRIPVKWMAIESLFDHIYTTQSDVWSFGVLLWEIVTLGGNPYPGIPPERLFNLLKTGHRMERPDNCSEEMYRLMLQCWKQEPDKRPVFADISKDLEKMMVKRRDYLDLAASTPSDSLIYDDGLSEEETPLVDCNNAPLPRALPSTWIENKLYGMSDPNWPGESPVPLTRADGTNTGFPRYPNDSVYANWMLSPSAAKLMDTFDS

SMILES: Cc1c(-c2cnn(C)c2)nn(-c2ccccc2)c1NC(=O)Nc1sc(C(F)(F)F)nc1-c1ccccc1 [Example 2, 1-(1′,4-dimethyl-1-phenyl-1H,1′H-[3,4′-bipyrazol]-5-yl)-3-(4-phenyl-2-(trifluoromethyl)thiazol-5-yl)urea]
- Avg POC (JNK1alpha1): 113 POC
- Avg POC (Mer): 105.5 POC
- Avg POC (PRKG1alpha): 118 POC
- Avg POC (MINK): 117.5 POC
- Avg POC (Yes): 128.5 POC
- Avg POC (Flt1): 104 POC
- Avg POC (EphA8): 118.5 POC
- Avg POC (CK2alpha2): 104 POC
- Avg POC (CLK3): 110.5 POC
- Avg POC (NEK7): 119.5 POC
- Avg POC (AKT2): 171.5 POC
- Avg POC (CK2): 95 POC
- Avg POC (PKCalpha): 102.5 POC
- Avg POC (Pim-3): 107.5 POC
- Avg POC (IGF-1R Activated): 97.5 POC
- Avg POC (PKCiota): 67 POC
- Avg POC (PAK6): 135 POC
- Avg POC (CAMK1): 95.5 POC
- Avg POC (SRC): 110.5 POC
- Avg POC (c-RAF): 96.5 POC
- Avg POC (Ret): 91.5 POC
- Avg POC (MSSK1): 132 POC
- Avg POC (IR Activated): 113.5 POC
- Avg POC (Fes): 121.5 POC
- Avg POC (VRK2): 91.5 POC
- Avg POC (CK1_y): 103 POC
- Avg POC (PAK5): 131.5 POC
- Avg POC (WNK2): 115 POC
- Avg POC (EphB1): 136 POC
- Avg POC (Plk2): 99 POC
- Avg POC (MST3): 157.5 POC
- Avg POC (FGFR2): 116.5 POC
- Avg POC (PRKG1beta): 119 POC
- Avg POC (PKCbetaI): 102 POC
- Avg POC (AURKA): 116 POC
- Avg POC (CHK2): 133 POC
- Avg POC (PKD1): 97.5 POC
- Avg POC (MYLK): 99 POC
- Avg POC (BrSK1): 132.5 POC
- Avg POC (JNK3): 120 POC
- Avg POC (PKCbetaII): 95 POC
